Reference: patent publication US20250161244A1 (UNION HOSPITAL, TONGJI MEDICAL COLLEGE, HUAZHONG UNI. OF …, priority 2023, published 2025)

Tested on: LX-2 cells (human HSCs)
Test: CCK8 experiment, proliferation of LX-2 cells
Type: cell-based
Conditions: 48 h incubation, CCK-8; tested at 2.5 μM and 5 μM

**Q.** How did the “inhibitory effect on LX-2 cells proliferation” value turn out when CC1=C(/C=C/C(C)=C/C=C/C(C)=C/CO)C(C)(C)CCC1 [VA, vitamin A] was run?
**A.** no inhibitory effect
